Measured values as given in patent publication US6790971B1, “19-Nor-steroids” (Aventis Pharma S.A., priority 1989, dated 2004).

Legend:
[1] = target: T1, Androgen Receptor of Rat's Prostate (Rattus norvegicus, UniProt P15207); test: Relative affinity of the bond, androgen receptor (tritiated testosterone displacement); assay type: binding; details: for Relative affinity of the bond (RAB), Androgen, 0.5 H: incubation 0.5 H at 0° C.; for Relative affinity of the bond (RAB), Androgen, 0.5 H / Relative affinity of the bond (RAB), Androgen, 25 H: RAB=100(CH)/(CX); for Relative affinity of the bond (RAB), Androgen, 25 H: incubation 25 H at 0° C.
T1 construct: Their prostates were removed, weighed and homogenized at 0° C; from tissue; host or cells: prostate cytosol (105,000 g supernatant) of castrated male Sprague-Dawley rats
T1 sequence (P15207 1-902): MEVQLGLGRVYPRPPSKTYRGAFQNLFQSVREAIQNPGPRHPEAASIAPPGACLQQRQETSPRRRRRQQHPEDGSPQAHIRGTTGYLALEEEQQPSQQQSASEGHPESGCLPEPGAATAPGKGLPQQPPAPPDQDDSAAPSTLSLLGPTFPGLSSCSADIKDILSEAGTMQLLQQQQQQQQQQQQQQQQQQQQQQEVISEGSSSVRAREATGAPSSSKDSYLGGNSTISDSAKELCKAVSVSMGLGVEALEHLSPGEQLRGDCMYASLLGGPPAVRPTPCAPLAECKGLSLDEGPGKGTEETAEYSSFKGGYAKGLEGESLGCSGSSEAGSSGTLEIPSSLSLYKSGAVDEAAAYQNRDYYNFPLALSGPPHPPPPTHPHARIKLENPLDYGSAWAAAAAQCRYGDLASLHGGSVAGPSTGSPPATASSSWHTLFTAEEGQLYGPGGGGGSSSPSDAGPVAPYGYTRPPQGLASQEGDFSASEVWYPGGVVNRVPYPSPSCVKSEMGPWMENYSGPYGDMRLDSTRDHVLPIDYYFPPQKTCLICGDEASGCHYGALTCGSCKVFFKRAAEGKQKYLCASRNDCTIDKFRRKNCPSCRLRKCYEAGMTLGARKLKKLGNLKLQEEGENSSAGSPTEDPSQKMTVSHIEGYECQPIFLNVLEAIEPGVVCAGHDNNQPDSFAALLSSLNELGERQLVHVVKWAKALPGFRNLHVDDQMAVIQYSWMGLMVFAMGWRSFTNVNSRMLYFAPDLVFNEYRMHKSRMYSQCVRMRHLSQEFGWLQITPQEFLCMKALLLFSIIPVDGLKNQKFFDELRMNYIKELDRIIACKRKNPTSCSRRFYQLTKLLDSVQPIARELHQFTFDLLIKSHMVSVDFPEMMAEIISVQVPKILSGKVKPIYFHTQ
Experimental: Androgen Receptor of Rat's Prostate:
Male Sprague Dawley EPOS rats weighing 160 to 200 g were castrated and 24 hours after the castration, the animals were killed. Their prostates were removed, weighed and homogenized at 0° C. using a Potter teflon-glass in a TS buffered solution (Tris 10 mM, saccharose 0.25 M, HCl pH 7.4) (1 g of tissue for 5 ml of TS). The homogenate was ultracentrifuged (105,000 g for 60 minutes) at 0° C. and aliquots of the supernatant were incubated at 0° C. for an incubation time E with a constant concentration (T) of tritiated testosterone in the presence of increasing concentrations (0-1000.10^−9 M) either of cold testosterone or of the product to be tested. The concentration of bound tritiated testosterone (B) was then measured in each incubate by the adsorption on dextran carbon technique.
(§1) Calculation of the Relative Affinty of the Bond
(§2) The calculation of the Relative Affinity of the Bond (RAB) was identical for all the receptors. The following 2 curves were traced; the percentage of the bound tritiated hormone [formula]
(§3) was a function of the logarithm of the concentration of the cold reference hormone and [formula]
(§4) as a function of the logarithm of the concentration of the cold product tested.
(§5) One determined the straight line of the equation [formula]
(§6) The intersections of the straight line I50 and of the curves make it possible to evaluate the concentrations of the cold reference hormone (CH) and of the tested cold product (CX) which inhibit to an extend of 50% the binding of the tritiated hormone upon the receptor. The relative affinity of the bond (RAB) of the tested product is determined by the equation

[2] = target: T2, Progestogen Receptor of Rabbit's Uterus (Oryctolagus cuniculus, UniProt P06186); test: Relative affinity of the bond, progestogen receptor (tritiated product R displacement); assay type: binding; details: for Relative affinity of the bond (RAB), Progestogen, 2 H: incubation 2 H at 0° C.; for Relative affinity of the bond (RAB), Progestogen, 2 H / Relative affinity of the bond (RAB), Progestogen, 24 H: RAB=100(CH)/(CX); for Relative affinity of the bond (RAB), Progestogen, 24 H: incubation 24 H at 0° C.
T2 construct: The uteri were removed, weighed and homogenized at 0° C; from tissue; host or cells: uterine cytosol (150,000 g supernatant) of estradiol-primed immature rabbits
T2 sequence (P06186 1-930): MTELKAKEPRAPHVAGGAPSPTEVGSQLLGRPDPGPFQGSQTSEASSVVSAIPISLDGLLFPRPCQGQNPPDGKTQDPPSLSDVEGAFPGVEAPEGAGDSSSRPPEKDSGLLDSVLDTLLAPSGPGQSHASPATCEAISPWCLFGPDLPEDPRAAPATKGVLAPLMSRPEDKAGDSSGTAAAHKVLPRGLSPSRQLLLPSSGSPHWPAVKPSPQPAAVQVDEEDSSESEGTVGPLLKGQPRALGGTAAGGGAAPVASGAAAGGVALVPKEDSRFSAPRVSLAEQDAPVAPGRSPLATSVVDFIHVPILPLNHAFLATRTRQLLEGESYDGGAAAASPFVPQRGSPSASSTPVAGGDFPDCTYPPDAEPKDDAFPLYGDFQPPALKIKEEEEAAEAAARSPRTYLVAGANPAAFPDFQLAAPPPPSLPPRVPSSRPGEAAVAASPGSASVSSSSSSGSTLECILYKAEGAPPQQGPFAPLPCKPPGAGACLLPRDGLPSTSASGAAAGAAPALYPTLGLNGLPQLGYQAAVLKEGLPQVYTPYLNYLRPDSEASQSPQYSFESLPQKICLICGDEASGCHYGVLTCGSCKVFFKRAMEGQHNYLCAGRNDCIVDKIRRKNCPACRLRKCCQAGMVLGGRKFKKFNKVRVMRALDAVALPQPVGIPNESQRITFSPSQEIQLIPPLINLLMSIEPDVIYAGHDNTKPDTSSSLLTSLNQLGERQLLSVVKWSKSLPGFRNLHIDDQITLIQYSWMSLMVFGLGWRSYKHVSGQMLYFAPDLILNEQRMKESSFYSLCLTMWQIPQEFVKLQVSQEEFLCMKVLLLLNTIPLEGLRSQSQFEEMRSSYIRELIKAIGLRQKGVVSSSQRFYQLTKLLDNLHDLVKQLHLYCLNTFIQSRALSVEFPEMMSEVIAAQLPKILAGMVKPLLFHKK
Experimental: Progestogen Receptor of Rabbit's Uterus:
Impuberal rabbits weighing about 1 kg received a cutaneous application of 25 μg of estradiol and 5 days after this treatment, the animals were killed. The uteri were removed, weighed and homogenized at 0° C. using a Potter teflon-glass in a TS buffered solution (Tris 10 mM, Saccharose 0.25 M, HCl pH 7.4) (1 g of tissue for 50 ml of TS). The homogenate was then ultracentrifuged (150,000 g×90 minutes) at 0° C. and aliquots of the supernatant were incubated at 0° C. for a time t, with a constant concentration (T) of the tritiated product R (17,21-dimethyl-19-nor-Δ^4,9-pregnadiene-3,20-dione in the presence of increasing concentrations (0-2500.10^−9 M) either of cold R or of cold progesterone, or of the cold product to be tested. The concentration (B) of bound tritiated R was subsequently measured in each incubate by the technique of adsorption on dextran charcoal.
as §1, §2, §3, §4, §5, §6

Compound	Relative affinity of the bond (RAB), Androgen, 0.5 H [1]	Relative affinity of the bond (RAB), Androgen, 25 H [1]	Relative affinity of the bond (RAB), Progestogen, 2 H [2]	Relative affinity of the bond (RAB), Progestogen, 24 H [2]	affinity for the pregesterone receptor [2]	affinity for the androgen receptor [1]
CCCCN(C)C(=O)CCCCCCCCCC[C@H]1C[C@]2(C)[C@@H](O)CC[C@H]2[C@@H]2CCc3cc(O)ccc3[C@@H]12 [Example 13, N-Butyl-3,17β-Dihydroxy-N-Methyl-11β-Δ^1,3,5(10)-Estratriene-Undecanamide]	0	0.12	0.0	1.8	–	–
CC(C)N(C)C(=O)CCCCCCCCCC[C@H]1C[C@]2(C)[C@@H](O)CC[C@H]2[C@@H]2CCc3cc(O)ccc3[C@@H]12 [Example 16, 3,17β-dihydroxy-N-methyl-N-isopropyl-11β-Δ^1,3,5(10)-estratriene undecanamide]	0	0.4	0.5	2	–	–
CN(Cc1ccccc1)C(=O)CCCCCCCCCC[C@H]1C[C@]2(C)[C@@H](O)CC[C@H]2[C@@H]2CCC3=CC(=O)CCC3=C12 [Example 17, N-benzyl-17β-hydroxy-N-methyl-3-oxo-11β-Δ^4,9-estradiene undecanamide]	0.12	1.2	0	16	moderate affinity	–
CN(C)CCN(C)C(=O)CCCCCCCCCC[C@H]1C[C@]2(C)[C@@H](O)CC[C@H]2[C@@H]2CCC3=CC(=O)CCC3=C12 [Example 19, N-[2-(dimethylamino)-ethyl]-17β-hydroxy-N-methyl-3-oxo-11β-Δ^4,9-estradiene undecanamide]	11	11	6	7	–	moderate affinity
CC#C[C@]1(O)CC[C@H]2[C@@H]3CCC4=CC(=O)CCC4=C3[C@@H](CCCCCCCCCCC(=O)NCCCC)C[C@@]21C [Example 22, N-butyl-17β-hydroxy-3-oxo-17α-(1-propynyl)-11β-Δ^4,9-estradiene undecanamide]	0.0	0	12	21	moderate affinity	–
CCCCN(C)C(=O)CCCCCCCCCCC[C@H]1C[C@]2(C)[C@@H](O)CC[C@H]2[C@@H]2CCc3cc(O)ccc3[C@@H]12 [Example 24, N-butyl-3,17β-dihydroxy-N-methyl-11β-Δ^1,3,5(10)-estratriene dodecanamide]	0	0.4	0	0	–	–
N-butyl-3,17β-dihydroxy-N-methyl-19-nor-11β-Δ^1,3,5(10)-pregnatrien-20-yn undecanamide [Example 21]	0	0	0.3	1	–	–
